In patent US10524472B2, “Elicitor peptides having disrupted hypersensitive response box and use thereof” (Plant Health Care, Inc., priority 2014, dated 2020):
Marks after values point to notes of the source that are not given here.

Experiments:
[1] = test system: tobacco plants (leaf tissue discs); assay: Peroxide response, ferric-xylenol orange assay on tobacco leaf discs; format: cell-based; conditions: 0.5 ug/ml peptide, one hour, absorbance at 595 nm vs blank
Procedure: (§1) The ferric-xylenol orange complex assay for hydrogen peroxide (Gay et al., Analytical Biochemistry 273:149-55 (1999), which is hereby incorporated by reference in its entirety) was used to determine peroxide production by plant leaf tissue. Briefly, reagent A was prepared by mixing 10 mg of ferrous ammonium sulfate with 133 uL of sulfuric acid in a total volume of 1 mL with water. Reagent B was prepared by mixing 2 g of sorbitol with 9.34 mg of xylenol orange in 80 ml of water. 1M hydrochloric acid was slowly added until the solution turned yellow. The solution was then diluted with water to a total volume of 100 mL, and stored in a dark bottle at 4° C.
(§2) Leaves from either tobacco plants (plants grown to 6 true leaves) or soy plants (plants grown to 6 true leaves) were used for the assay. The leaf was first removed from the plant and placed on a paper towel. 0.5 cm leaf tissue circles were then removed from the leaf using a leather punch tool. These discs were then placed into the wells of a 96-well plate. […] of water was added to each disc. The plate was covered with parafilm and rested for 12 hours in the dark. The excess water was then removed and the wells washed with an additional 250 uL of water. The washes were then removed from the wells and replaced with 105 uL of a 0.5 ug/ml solution of peptide in water or water blank, generally in quadruplicate. Where peptide solubility was a problem, pH buffer was added to both the blank and peptide samples. Leaf discs were incubated with the peptides for one hour under fluorescent lighting. 50 ul of the solution from each leaf sample was removed to a new well for chemical analysis.
(§3) Just prior to analysis, reagents A and B were freshly mixed in a 1:100 ratio to produce the assay reagent. 200 ul of this mixture was added to each well containing 50 ul of leaf-treated solution. The plate was incubated in the dark for 20 minutes and the absorbance at 595 nm was detected. Results were analyzed using a two-tailed Student's T-test. The results were divided into several response classes. XR++ indicated a positive response with absorbance >0.05 units above the negative control and a Student's T-test p<0.05. XR+ indicated an absorbance <0.05 units above the blank and a Student's T-test p<0.05. XR weak indicated a response >0.02 units above the negative control with a p-value that was not significant. XR− indicated an absorbance within 0.02 units of the negative control. It should be noted that there can be significant biological variability in the peroxide response due to plant age, location of the disc within the leaf, and other factors. As a result, p-values from the T-test are a guide and not an absolute inclusion criterion.

[2] = test system: tobacco mosaic virus (TMV); assay: Induction of resistance to tobacco mosaic virus in tobacco; format: in vivo; conditions: for Effectiveness Covered (%) (decline in TMV lesions vs UTC, systemic response) / Effectiveness Uncovered (%) (decline in TMV lesions vs UTC, local response): TMV 3 days post-treatment, scored 3 days after inoculation
[3] = test system: soy plants (leaf tissue discs); assay: Peroxide response, ferric-xylenol orange assay on soy leaf discs; format: cell-based; conditions: 0.5 ug/ml peptide, one hour, absorbance at 595 nm vs blank
Procedure: as §1, §2, §3

soybean seeds = assay: Root & shoot growth analysis after seed soak, soy; format: in vivo; conditions: for Root (root growth index, percentage increase over untreated control) / Shoot (shoot length, percentage increase over untreated control): soy, 12-14 days
Procedure: (§4) Peptides were tested for biological effects on the allocation of growth resources to the shoot (above ground) and root (below ground). Peptides were dissolved at 0.2, 2, or 5 μg/ml in a total volume of 100 ml deionized water. Corn or soybean seeds were then soaked for one hour in the peptide solution. Untreated control (UTC) plants were soaked in deionized water. Clear plastic 300 ml beverage cups (Solo®, Dart Container Corporation) were prepared for planting by marking the bottom with a cross, dividing the bottom into four equal quadrants. The cups were then filled with Sunshine Mix #1 soil (SunGro Horticulture) sieved to ¼″. 100 ml of water was added to the soil. Treated seeds were then planted by pressing the seed lightly into the top of the soil. The seeds were then covered with an additional 50 ml of loose soil. Seeds were allowed to germinate and grow for 12-14 days.
The length of the shoot was measured as the distance from the soil to the lightly stretched tip of the highest leaf for each plant. […] Stunting was defined as lacking a fully expanded true leaf at time of data collection or having an expanded true leaf judged by eye to be <½ the average leaf area of the treatment group. Generally, 30 seeds were planted per treatment group and 15-25 plants were used for data collection.
Root growth was estimated by counting the number of times that a primary root crosses the quadrant marks on the bottom of the cup. These were often observed along the bottom circumference of the cup, although some were visible along the side of the container and were counted as if crossing a vertical extension of the quadrant line. This number was divided by 4 to produce a root growth index.
Each number indicates the percentage increase over the untreated control values.

Soy plants = assay: Growth tests after foliar spray, soy; format: in vivo; conditions: for growth, dry biomass and fresh mass (text summary of Table 21): foliar spray; for Dry biomass increase (%) / Growth increase (%): soy, 14 days
Procedure: (§5) Soy seeds (or corn seeds, as indicated) were planted in flats with 2 seeds per cell within the flat at a greenhouse facility. The seeds were allowed to germinate and the smaller plant is culled, leaving one plant per cell. Once the first true leaves are fully expanded and the second leaves are beginning to expand, the plants were initially measured for height. This was performed by stretching the highest leaf upward and measuring the distance to the soil. Peptides were dissolved in water at the indicated concentrations (Table 21 below). The plants were then treated with a foliar spray using widely available spray bottles until liquid was dripping from the leaves. Six flats of 14 plants each were treated per condition (peptide or control). Designated untreated control plants were sprayed with water. The plants were allowed to grow for 14 days. The height of the plants was again measured and compared to the original height to quantify growth. Finally, the plants were harvested by removing the shoots (all above-ground material). For some experiments, this was weighed upon harvesting to determine the fresh mass (including water weight). The shoots were then dried at 70° C. for 72 hours, and again weighed to determine dry biomass. Although this method uses a similar measure (growth) as in Example 3 above, the treatment method is different (seed soak vs. foliar spray). As a result, the experimental outcomes may diverge.

Corn seeds = assay: Root & shoot growth analysis after seed soak, corn; format: in vivo; conditions: seed soak 0.2 μg/ml, 12-14 days
Procedure: as §4
The length of the shoot was measured as the distance from the soil to the lightly stretched tip of the highest leaf for each plant. […]
Root growth was estimated by counting the number of times that a primary root crosses the quadrant marks on the bottom of the cup. These were often observed along the bottom circumference of the cup, although some were visible along the side of the container and were counted as if crossing a vertical extension of the quadrant line. […]

corn plants = assay: Growth tests after foliar spray, corn; format: in vivo
Procedure: as §5

[4] = foliar spray 2.0 ug/ml, 14 days

Sequence: SQGISEKQLDQLDSQLIQALLQP (P4-14S-13D)
- Peroxide Response, Tobacco [1]: Weak+

Sequence: SQGISEKQDDQLLSQLIQALLQP (P4-14S-9D)
- Effectiveness Covered (%) (decline in TMV lesions vs UTC, systemic response) ([2]; spray 10 ug/ml): 52%
- Effectiveness Uncovered (%) (decline in TMV lesions vs UTC, local response) ([2]; spray 10 ug/ml): 89%
- Peroxide Response, Soy [3]: Weak+

Sequence: QAGPQSANKTGNVDDANNQDPAQALEQLLEDLV (P14-22A,26E)
- Effectiveness Covered (%) (decline in TMV lesions vs UTC, systemic response) ([2]; spray 20 ug/ml): 85* %
- Effectiveness Uncovered (%) (decline in TMV lesions vs UTC, local response) ([2]; spray 20 ug/ml): 91* %
- Peroxide Response, Soy [3]: Weak+

Sequence: QAGPQSANKTGNVDDANNQDPMQALMQLLEDLV (P14)
- root growth (text summary of Table 20) (soybean seeds; seed soak): Increased root growth
- Root (root growth index, percentage increase over untreated control) (soybean seeds; seed soak 5.0 μg/ml): 24.9%*
- Shoot (shoot length, percentage increase over untreated control) (soybean seeds; seed soak 5.0 μg/ml): 4.4%
- growth, dry biomass and fresh mass (text summary of Table 21) (Soy plants): increases in growth and dry biomass
- Dry biomass increase (%) (Soy plants; foliar spray 2.0 ug/ml): 1.6%
- Growth increase (%) (Soy plants; foliar spray 2.0 ug/ml): 25.8%
- Dry biomass increase (%) (Soy plants; foliar spray 5.0 ug/ml): 3%
- Growth increase (%) (Soy plants; foliar spray 5.0 ug/ml): 31.4%
- Peroxide Response, Tobacco [1]: Weak+

Sequence: QAGPQSANKTGNVDDANNQDPLQALLQLLEDLV (P14-22L,26L)
- Effectiveness Covered (%) (decline in TMV lesions vs UTC, systemic response) ([2]; spray 20 ug/ml): 67* %
- Effectiveness Uncovered (%) (decline in TMV lesions vs UTC, local response) ([2]; spray 20 ug/ml): 65* %
- Peroxide Response, Soy [3]: Weak+

Sequence: QAGPQSANKTGNVDDANNQDPLQALLQAAEDLV (P14-22L,28-29A)
- Effectiveness Covered (%) (decline in TMV lesions vs UTC, systemic response) ([2]; spray 10 ug/ml): 84* %
- Effectiveness Uncovered (%) (decline in TMV lesions vs UTC, local response) ([2]; spray 10 ug/ml): 83* %
- Peroxide Response, Soy [3]: Weak+

Sequence: SQGISEKQSDQLLSQLIQALLQP (P4-14S-9S)
- Peroxide Response, Tobacco [1]: Weak+

Sequence: SQGISEKQADQLLSQLIQALLQP (P4-14S-9A)
- shoot growth (Table 20) (soybean seeds; seed soak, p14a soy at 0.2 μg/ml): increased shoot growth
- Root (root growth index, percentage increase over untreated control) (soybean seeds; seed soak 2.0 μg/ml): 4.3%
- Shoot (shoot length, percentage increase over untreated control) (soybean seeds; seed soak 2.0 μg/ml): 5.0%
- Root (root growth index, percentage increase over untreated control) (soybean seeds; seed soak 5.0 μg/ml): 2.5%
- Shoot (shoot length, percentage increase over untreated control) (soybean seeds; seed soak 5.0 μg/ml): 6.5%*
- Root (root growth index, percentage increase over untreated control) (Corn seeds): 4.8%
- Shoot (shoot length, percentage increase over untreated control) (Corn seeds): 3.9%*
- growth, dry biomass and fresh mass (text summary of Table 21) (Soy plants): increases in growth and dry biomass
- Dry biomass increase (%) (Soy plants; foliar spray 2.0 ug/ml): 10.8%
- Growth increase (%) (Soy plants; foliar spray 2.0 ug/ml): 11.9%
- TMV response / effectiveness against TMV infection (summary of Table 22) ([2]; foliar spray): produced the best results
- Effectiveness Covered (%) (decline in TMV lesions vs UTC, systemic response) ([2]; spray 5.0 ug/ml): 86* %
- Effectiveness Uncovered (%) (decline in TMV lesions vs UTC, local response) ([2]; spray 5.0 ug/ml): 84* %

Sequence: SQGISEKQLDQLQSQLIQALLQP (P4-14S-13Q)
- Effectiveness Covered (%) (decline in TMV lesions vs UTC, systemic response) ([2]; spray 10 ug/ml): 61* %
- Effectiveness Uncovered (%) (decline in TMV lesions vs UTC, local response) ([2]; spray 10 ug/ml): 40%
- Peroxide Response, Tobacco [1]: Weak+

Sequence: SEEELQQLLKLFSEIL (P3-5)
- Effectiveness Covered (%) (decline in TMV lesions vs UTC, systemic response) ([2]; spray 10 ug/ml): 94* %
- Effectiveness Uncovered (%) (decline in TMV lesions vs UTC, local response) ([2]; spray 10 ug/ml): 66%
- Peroxide Response, Tobacco [1]: Weak +

Sequence: SQGISEKQLDQLFSQLIQALLQP (P4-14S-13F)
- Peroxide Response, Tobacco [1]: Weak+

Sequence: QAGPQSANKTGNVDDANNQDPLQALEQLLEDLV (P14-22L,26E)
- Effectiveness Covered (%) (decline in TMV lesions vs UTC, systemic response) ([2]; spray 20 ug/ml): 91* %
- Effectiveness Uncovered (%) (decline in TMV lesions vs UTC, local response) ([2]; spray 20 ug/ml): 70* %
- Peroxide Response, Tobacco [1]: Weak+

Sequence: QAGPQSANKTGNVDDANNQDPEQALEQLLEDLV (P14-22E,26E)
- Effectiveness Covered (%) (decline in TMV lesions vs UTC, systemic response) ([2]; spray 20 ug/ml): 62%
- Effectiveness Uncovered (%) (decline in TMV lesions vs UTC, local response) ([2]; spray 20 ug/ml): 74* %
- Peroxide Response, Tobacco [1]: Weak+

Sequence: NQGISEKQLDQLLTQLI (P1-29)
- growth benefit in corn (corn plants; foliar spray): modest growth benefit
- Dry biomass increase (%) (corn plants; [4]): 5.7%
- Fresh mass increase (%) (corn plants; [4]): 5.1%
- Growth increase (%) (corn plants; [4]): 7.8%
- Effectiveness Covered (%) (decline in TMV lesions vs UTC, systemic response) ([2]; spray 10 ug/ml): 18%
- Effectiveness Uncovered (%) (decline in TMV lesions vs UTC, local response) ([2]; spray 10 ug/ml): 44%
